Results published in US9540314B2, “N-cycloalkyl-N-[(cycloalkenylphenyl)methylene]-(thio) carboxamide derivatives” (BAYER INTELLECTUAL PROPERTY GMBH, priority 2012, dated 2017).
Marks after values point to notes of the source that are not given here.

What was measured:
[1] = log P by HPLC on a reversed-phase column (C 18), EEC Directive 79/831 Annex V.A8; format: physicochemical; settings: HPLC C 18, 40° C., 0.1% aqueous formic acid and acetonitrile; for chromatographic logP: reversed-phase HPLC column (C 18), Table 2, compounds of formula (IIa); for logP: Table 1, several values = mixture of 2 or more isomers
Experimental: In table 1, the log P values were determined in accordance with EEC Directive 79/831 Annex V.A8 by HPLC (High Performance Liquid Chromatography) on a reversed-phase column (C 18), using the method described below:
Temperature: 40° C.; Mobile phases: 0.1% aqueous formic acid and acetonitrile; linear gradient from 10% acetonitrile to 90% acetonitrile.
Calibration was carried out using unbranched alkan-2-ones (comprising 3 to 16 carbon atoms) with known log P values (determination of the log P values by the retention times using linear interpolation between two successive alkanones). lambda-max-values were determined using UV-spectra from 200 nm to 400 nm and the peak values of the chromatographic signals.

Pyrenophora teres = experiment: In vivo preventive test on Pyrenophora teres (barley); settings: Table H2; 100 ppm, barley plants, preventive, grading 14 days after contamination
Experimental: (§1) The active ingredients tested are prepared by homogenization in a mixture of acetone/tween/DMSO, and then diluted with water to obtain the desired active material concentration.
Barley plants (“Plaisant” variety), sown in starter cups on a 50/50 peat soil pozzolana substrate and grown at 22° C., are treated at the 1 leaf stage (10 cm height) by spraying with the active ingredient prepared as described above. Plants, used as controls, are treated with the mixture of acetone/tween/DMSO/water not containing the active material.
After 24 hours, the plants are contaminated by spraying the leaves with an aqueous suspension of Pyrenophora teres spores (12 000 spores per mL). The spores are collected from a 12-day-old culture.
The contaminated barley plants are incubated for 48 hours at 20° C. and at 100% relative humidity, and then for 12 days at 20° C. at 70-80% relative humidity.
Grading (% of efficacy) is carried out 14 days after the contamination, in comparison with the control plants.
Under these conditions, good (at least 70%) to total protection is observed at a dose of 500 ppm of active ingredient with the following compounds from table H1: […]

Uromyces appendiculatus = experiment: In vivo preventive test on Uromyces appendiculatus (bean rust); settings: bean plants; for protection: Table K2 comparison with saturated analogues, 500 ppm, preventive, 11 days after contamination
Experimental: as §1
(§2) After 24 hours, the plants are contaminated by spraying the leaves with an aqueous suspension of Uromyces appendiculatus spores (150 000 spores per mL). The spores are collected from infected plants and are suspended in water containing 2.5 mL/L of Tween 80 at 10%. The contaminated bean plants are incubated for 24 hours at 20° C. and at 100% relative humidity, and then for 10 days at 20° C. and at 70-80% relative humidity.
Grading (% of efficacy) is carried out 11 days after the contamination, in comparison with the control plants.

Puccinia recondita = experiment: In vivo preventive test on Puccinia recondita (brown rust on wheat); settings: 500 ppm of active ingredient; wheat plants, preventive spray; grading 12 days after contamination
Experimental: as §1
Wheat plants (“Scipion” variety), sown in starter cups on a 50/50 peat soil pozzolana substrate and grown at 22° C., are treated at the 1 leaf stage (10 cm height) by spraying with the active ingredient prepared as described above. Plants, used as controls, are treated with the mixture of acetone/tween/DMSO/water not containing the active material.
as §2, with “of Puccinia recondita” for “of Uromyces appendiculatus”, “spores (100” for “spores (150”, “from an” for “from”, “infected plant” for “infected plants”, “contaminated wheat” for “contaminated bean”
Grading (% of efficacy) is carried out 12 days after the contamination, in comparison with the control plants.
Under these conditions, good (at least 70%) to total protection is observed at a dose of 500 ppm of active ingredient with the following compounds from table I: […]

[2] = 500 ppm of active ingredient, preventive spray, grading 11 days after contamination (table K1)
[3] = dose 100 ppm, comparison with saturated analogues (table K2)
[4] = dose 500 ppm, comparison with saturated analogues (table K2)

Work on `C1=C(c2ccccc2CNC2CC2)CCCC1` [IIa.6, N-[2-(cyclohex-1-en-1-yl)benzyl]cyclopropanamine] yielded a chromatographic logP [1] of 1.37.

In the case of `Cn1cc(C(=O)N(Cc2cc(Cl)ccc2C2=CCCCCC2)C2CC2)c(C(F)F)n1` [I.57], the logP [1] is reported as 4.87 and the Efficacy (Pyrenophora teres) is reported as 79%.

Compound `Cn1nc(C(F)F)c(C(=O)N(Cc2cc(C3=CCCC3)ccc2Cl)C2CC2)c1Cl` [I.8] has a logP [1] of 4.82 and an Efficacy (Pyrenophora teres) of 71%.

Work on `Cn1nc(C(F)F)c(C(=O)N(Cc2cc(C3=CCCCC3)ccc2Cl)C2CC2)c1Cl` [I.34] yielded a logP [1] of 5.14 and an Efficacy (Pyrenophora teres) of 79%.

In the case of `Cn1nc(C(F)F)c(C(=O)N(Cc2cc(Cl)ccc2C2=CCCCC2)C2CC2)c1F` [I.41], the logP [1] is reported as 4.88.

In the case of `Cn1cc(C(=O)N(Cc2cc(C3=CCCC3)ccc2Cl)C2CC2)c(C(F)F)c1` [I.11], the logP [1] is reported as 4.63.

For `Cn1cc(C(=O)N(Cc2cc(Cl)ccc2C2=CCCC2)C2CC2)c(C(F)F)n1` [I.22], the logP [1] was 4.06 and the Efficacy (Pyrenophora teres) was 71%.

In the case of `Cn1cc(C(=O)N(Cc2cc(Cl)ccc2C2=CCCC2)C2CC2)c(C(F)F)c1` [I.24], the logP [1] is reported as 4.58.

Work on `Cn1cc(C(=O)N(Cc2cc(C3=CCCCC3)ccc2Cl)C2CC2)c(C(F)F)c1` [I.36] yielded a logP [1] of 4.93.

`CC(NC1CC1)c1ccccc1C1=CCCC1` (stereo not shown) [IIa.1, N-{1-[2-(cyclopent-1-en-1-yl)phenyl]ethyl}cyclopropanamine] gave a chromatographic logP [1] of 1.72.

`Cn1cc(C(=O)N(Cc2ccccc2C2=CCCC2)C2CC2)c(C(F)F)c1` [I.5] gave a logP [1] of 4.13.

For `O=C(c1ccsc1I)N(Cc1ccccc1C1=CCCC1)C1CC1` [I.6], the logP [1] was 4.85 and the Efficacy (Uromyces appendiculatus; [2]) was 88%.

With `CC1CC=C(c2ccc(F)cc2CN(C(=S)c2c(C(F)F)nn(C)c2Cl)C2CC2)CC1` (racemic) [I.48] the logP [1] was 5.77.

Compound `O=C(c1ccsc1I)N(Cc1cc(Cl)ccc1C1=CCCCC1)C1CC1` [I.42] has a logP [1] of 5.78.

Work on `C1=C(c2ccccc2CNC2CC2)CCCCC1` [IIa.9, N-[2-(cyclohept-1-en-1-yl)benzyl]cyclopropanamine] yielded a chromatographic logP [1] of 1.45.

`Cn1nc(C(F)F)c(C(=O)N(Cc2ccccc2C2=CCCCC2)C2CC2)c1Cl` [I.29] gave a logP [1] of 4.66, an Efficacy (Puccinia recondita) of 81% and an Efficacy (Uromyces appendiculatus; [2]) of 84%. The Efficacy (Uromyces appendiculatus; [3]) was 35% and the Efficacy (Uromyces appendiculatus; [4]) was 84%.

`Cn1nc(C(F)F)c(C(=O)N(Cc2cc(C3=CCCC3)ccc2Cl)C2CC2)c1F` [I.9] showed a logP [1] of 4.59 and an Efficacy (Pyrenophora teres) of 79%.

For `Cn1nc(C(F)F)c(C(=O)N(Cc2ccccc2C2CCCC2)C2CC2)c1F` [CMP4, N-(2-cyclopentylbenzyl)-N-cyclopropyl-3-(difluoromethyl)-5-fluoro-1-methyl-1H-pyrazole-4-carboxamide, reference compound], the protection (Uromyces appendiculatus) was “poor (less than 20%) protection or plant damages” and the Efficacy (Uromyces appendiculatus; [3]) was 100%.

Compound `O=C(c1ccsc1I)N(Cc1cc(Cl)ccc1C1=CCCC1)C1CC1` [I.21] has a logP [1] of 5.36.

`Cn1nc(C(F)F)c(C(=O)N(Cc2cc(Cl)ccc2C2=CCCCC2)C2CC2)c1Cl` [I.38] gave a logP [1] of 5.11.

`O=C(c1ccsc1I)N(Cc1cc(C2=CCCC2)ccc1Cl)C1CC1` [I.12] showed a logP [1] of 5.51.

In the case of `Clc1ccc(C2=CCCCC2)cc1CNC1CC1` [IIa.8, N-[2-chloro-5-(cyclohex-1-en-1-yl)benzyl]cyclopropanamine], the chromatographic logP [1] is reported as 1.45.

In the case of `Cn1cc(C(=O)N(Cc2cc(C3=CCCCC3)ccc2Cl)C2CC2)c(C(F)F)n1` [I.37], the logP [1] is reported as 4.46.

`CC1CC=C(c2ccc(F)cc2CN(C(=O)c2c(C(F)F)nn(C)c2Cl)C2CC2)CC1` (racemic) [I.47] gave a logP [1] of 5.14 and an Efficacy (Puccinia recondita) of 81%.

In the case of `Cn1cc(C(=O)N(Cc2ccccc2C2CCCCC2)C2CC2)c(C(F)F)n1` [CMP5, N-(2-cyclohexylbenzyl)-N-cyclopropyl-3-(difluoromethyl)-1-methyl-1H-pyrazole-4-carboxamide, reference compound], the protection (Uromyces appendiculatus) is reported as “poor (less than 20%) protection or plant damages” and the Efficacy (Uromyces appendiculatus; [3]) is reported as 0%.

With `Cn1nc(C(F)F)c(C(=O)N(Cc2cc(Cl)ccc2C2=CCCCCC2)C2CC2)c1F` [I.54] the logP [1] was 5.31.

`Cn1nc(C(F)F)c(C(=O)N(Cc2cc(Cl)ccc2C2=CCCCCC2)C2CC2)c1Cl` [I.56] showed a logP [1] of 5.54.

Compound `Cn1nc(C(F)F)c(C(=O)N(Cc2cc(C3=CCCCC3)ccc2Cl)C2CC2)c1F` [I.33] has a logP [1] of 4.92 and an Efficacy (Pyrenophora teres) of 86%.

Work on `Clc1ccc(C2=CCCCC2)c(CNC2CC2)c1` [IIa.7, N-[5-chloro-2-(cyclohex-1-en-1-yl)benzyl]cyclopropanamine] yielded a chromatographic logP [1] of 1.45.

In the case of `Cn1cc(C(=O)N(Cc2cc(Cl)ccc2C2=CCCCC2)C2CC2)c(C(F)F)n1` [I.39], the logP [1] is reported as 4.44.

`O=C(c1ccsc1I)N(Cc1cc(Cl)ccc1C1=CCCCCC1)C1CC1` [I.58] gave a logP [1] of 6.27.

Compound `Cn1nc(C(F)F)c(C(=O)N(Cc2cc(Cl)ccc2C2=CCCC2)C2CC2)c1Cl` [I.23] has a logP [1] of 4.74.

`Cn1nc(C(F)F)c(C(=O)N(Cc2cc(Cl)ccc2C2=CCCC2)C2CC2)c1F` [I.20] showed a logP [1] of 4.54 and an Efficacy (Pyrenophora teres) of 97%.

`Cn1cc(C(=O)N(Cc2cc(C3=CCCC3)ccc2Cl)C2CC2)c(C(F)F)n1` [I.10] gave a logP [1] of 4.14.

Work on `Cn1cc(C(=O)N(Cc2cc(Cl)ccc2C2=CCCCC2)C2CC2)c(C(F)F)c1` [I.40] yielded a logP [1] of 4.93.

For `O=C(c1ccsc1I)N(Cc1cc(C2=CCCCC2)ccc1Cl)C1CC1` [I.35], the logP [1] was 5.87.

In the case of `Cn1nc(C(F)F)c(C(=O)N(Cc2ccccc2C2CCCCC2)C2CC2)c1F` [CMP6, N-(2-cyclohexylbenzyl)-N-cyclopropyl-3-(difluoromethyl)-5-fluoro-1-methyl-1H-pyrazole-4-carboxamide, reference compound], the protection (Uromyces appendiculatus) is reported as “poor (less than 20%) protection or plant damages” and the Efficacy (Uromyces appendiculatus; [3]) is reported as 38^(d) %.

Compound `CC(NC1CC1)c1cc(F)ccc1C1=CCCC1` (stereo not shown) [IIa.4, N-{1-[2-(cyclopent-1-en-1-yl)-5-fluorophenyl]ethyl}cyclopropanamine] has a chromatographic logP [1] of 1.56.

With `Clc1ccc(C2=CCCC2)cc1CNC1CC1` [IIa.5, N-[2-chloro-5-(cyclopent-1-en-1-yl)benzyl]cyclopropanamine] the chromatographic logP [1] was 1.39.

For `Clc1ccc(C2=CCCC2)c(CNC2CC2)c1` [IIa.3, N-[5-chloro-2-(cyclopent-1-en-1-yl)benzyl]cyclopropanamine], the chromatographic logP [1] was 1.28.

For `C1=C(c2ccccc2CNC2CC2)CCC1` [IIa.2, N-[2-(cyclopent-1-en-1-yl)benzyl]cyclopropanamine], the chromatographic logP [1] was 1.19.

Work on `Clc1ccc(C2=CCCCCC2)c(CNC2CC2)c1` [IIa.10, N-[5-chloro-2-(cyclohept-1-en-1-yl)benzyl]cyclopropanamine] yielded a chromatographic logP [1] of 1.71.

Compound `Cn1cc(C(=O)N(Cc2cc(Cl)ccc2C2=CCCCCC2)C2CC2)c(C(F)F)c1` [I.55] has a logP [1] of 5.34.

In the case of `Cn1nc(C(F)F)c(C(=O)N(Cc2ccccc2C2CCCCC2)C2CC2)c1Cl` [CMP7, 5-chloro-N-(2-cyclohexylbenzyl)-N-cyclopropyl-3-(difluoromethyl)-1-methyl-1H-pyrazole-4-carboxamide, reference compound], the protection (Uromyces appendiculatus) is reported as “poor (less than 20%) protection or plant damages”, the Efficacy (Uromyces appendiculatus; [3]) is reported as 0% and the Efficacy (Uromyces appendiculatus; [4]) is reported as 13%.

Work on `O=C(c1ccsc1I)N(Cc1ccccc1C1=CCCCCC1)C1CC1` [I.52] yielded a logP [1] of 5.78 and an Efficacy (Uromyces appendiculatus; [2]) of 75%.
